The values that follow come from US9018395B2, “Pyrazolopyridine and pyrazolopyrimidine derivatives as melanocortin-4 receptor modulators” (Université de Montréal, priority 2011, dated 2015).

Broadly, the pIC50 is the negative decadic logarithm of the IC50, by convention in mol/L. A higher pIC50 goes with a small IC50.

pIC50: −log10 of the molar value. Non-standard residues stand in square brackets, D forms with d. Nle = CCCC[C@H](N)C(=O)O

Test system in the first data set: not given
Test: not given
Conditions: in vivo; cited from earlier work.
Regarding “Ac-Nle-Gly-Lys-D-Nal(2)-Arg-Trp-Gly-NH(2)”, the blood-brain barrier crossing result is “crossed the blood-brain barrier”.

Take “Ac-Nle-Gly-Lys-D-Phe-Arg-Trp-Gly-NH(2) (Ac-[Nle]GK[dF]RWG-NH2; SMILES CCCC[C@H](NC(C)=O)C(=O)NCC(=O)N[C@@H](CCCCN)C(=O)N[C@H](Cc1ccccc1)C(=O)N[C@@H](CCCNC(=N)N)C(=O)N[C@@H](Cc1c[nH]c2ccccc12)C(=O)NCC(N)=O)”: the blood-brain barrier crossing entry is listed as “crossed the blood-brain barrier”.

The subject of another data set is MC4R.
Test: not given
The settings on record: cited from earlier work.
In the case of “Ac-Nle-Gly-Lys-D-Nal(2)-Arg-Trp-Gly-NH(2)”, the activity in vivo result is given as “active in vivo”.

As to “Ac-Nle-Gly-Lys-D-Phe-Arg-Trp-Gly-NH(2) (Ac-[Nle]GK[dF]RWG-NH2; SMILES CCCC[C@H](NC(C)=O)C(=O)NCC(=O)N[C@@H](CCCCN)C(=O)N[C@H](Cc1ccccc1)C(=O)N[C@@H](CCCNC(=N)N)C(=O)N[C@@H](Cc1c[nH]c2ccccc12)C(=O)NCC(N)=O)”, the activity in vivo entry was “active in vivo”.

In the next data set the target is T1, wild-type human melanocortin 4 receptor (WT-hMC4R) (Homo sapiens, UniProt P32245).
T1 construct: expressed in transfected cells; cDNA from UMR cDNA resource center
T1 sequence (P32245 whole entry): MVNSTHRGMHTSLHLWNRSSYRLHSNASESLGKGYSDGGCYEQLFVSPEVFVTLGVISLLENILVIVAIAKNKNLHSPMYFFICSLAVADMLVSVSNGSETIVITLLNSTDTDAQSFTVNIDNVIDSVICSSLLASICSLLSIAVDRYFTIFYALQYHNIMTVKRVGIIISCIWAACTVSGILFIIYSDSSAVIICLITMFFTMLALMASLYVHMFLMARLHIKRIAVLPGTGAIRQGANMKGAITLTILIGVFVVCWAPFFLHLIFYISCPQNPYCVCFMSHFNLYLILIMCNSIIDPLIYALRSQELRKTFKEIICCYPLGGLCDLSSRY
Description: Cyclic AMP assay (HTRF), antagonist competition against NDP-α-MSH. The data set is classed as cell-based. The settings on record: HEK293T cells expressing double-tagged WT-hMC4R; cAMP accumulation; 1 hour compound then 4 nM NDP-α-MSH 30 min. An outline of the steps:
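HEK293T cells stably expressing N-terminal 3xHA, C-terminal venus-YFP tagged WT-hMC4R, in D-PBS with 0.75 mM IBMX; compound (0.01 nM-10 μM) 1 h at 37° C, then 4 nM NDP-α-MSH 30 min. cAMP by HTRF competitive immunoassay; IC50 from sigmoidal variable-slope fit.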
Background: TR-FRET usually uses a lanthanide donor and a delayed reading to cut background.
Regarding `CCCCN(CCCC)C(=O)c1ccn2nc(-c3ccc(OC)cc3)c(/C=C/CN3CCCCC3)c2c1` [Example 12, (E)-N,N-Dibutyl-2-(4-methoxyphenyl)-3-(3-(piperidin-1-yl)prop-1-enyl)pyrazolo[1,5-a]pyridine-5-carboxamide], the pIC50 is 5.30 to 6.00.

In the case of `CCCNCCCc1c(-c2ccc(OC)cc2)nn2ccc(C(=O)N(CCC(C)C)CCC(C)C)cc12` [Example 163], the pIC50 is 5.30 to 6.00.

For the compound `COC(=O)c1ccc(-c2nn3ccc(C(=O)N(CCC(C)C)CCC(C)C)cc3c2/C=C/CN2CCCCC2)cc1` [Example 43, (E)-Methyl 4-(5-(diisopentylcarbamoyl)-3-(3-(piperidin-1-yl)prop-1-en-1-yl)pyrazolo[1,5-a]pyridin-2-yl)benzoate], the pIC50 is 6.00 to 6.30.

`CCCCN(CCCC)C(=O)c1ccn2nc(-c3ccccc3)c(/C=C/CN3CCCCC3)c2c1` [Example 57] had a pIC50 of 5.30 to 6.00.

`CC(C)CCN(CCC(C)C)C(=O)c1ccn2nc(-c3ccc(C(C)(C)C)cc3)c(CCCN3CCCC3)c2c1` [Example 8] gave a pIC50 of 5.30 to 6.00.

For the compound `CCCCCN(CCCCC)C(=O)c1ccn2nc(-c3cc(OC)c(OC)c(OC)c3)c(/C=C/CN3CCCCC3)c2c1` [Example 71], the negative-log IC50 (pIC50) is 5.30 to 6.00.

In the case of `CC(C)CCN(CCC(C)C)C(=O)c1ccn2nc(-c3cccc(Br)c3)c(CCCN3CCCCC3)c2c1` [Example 37], the pIC50 is more than 6.30.

In turn, `CC(=O)O/N=C(\N)c1ccc(-c2nn3ccc(C(=O)N(CCC(C)C)CCC(C)C)cc3c2CCCN2CCCCC2)cc1` [Example 107] gave a negative logarithm of the IC50 (pIC50) of more than 6.30.

`CC(C)CCN(CCC(C)C)C(=O)c1ccn2nc(-c3ccc(F)cc3)c(/C=C/CN3CCCCC3)c2c1` [Example 52] showed a pIC50 of 6.00 to 6.30.

For `CC(=O)c1ccc(-c2nn3ccc(C(=O)N(CCC(C)C)CCC(C)C)cc3c2/C=C/CN2CCOCC2)cc1` [Example 115], the pIC50 was 5.30 to 6.00.

Take `CC(C)CCN(CCC(C)C)C(=O)c1ccn2nc(-c3cccc(C(N)=O)c3)c(CCCN3CCCCC3)c2c1` [Example 90]: the pIC50 is more than 6.30.

`CCCCN(CCCC)C(=O)c1ccn2nc(-c3cc(OC)cc(OC)c3)c(/C=C/CN3CCCCC3)c2c1` [Example 85]: the negative logarithm of the IC50 (pIC50) was 6.00 to 6.30.

`CCCCCN(CCCCC)C(=O)c1ccn2nc(-c3ccc(OC)cc3)c(CCCN3CCCCC3)c2c1` [Example 21] showed a negative logarithm of the IC50 (pIC50) of 5.30 to 6.00.

Take `CC(C)CCN(CCC(C)C)C(=O)c1ccn2nc(-c3ccccc3Br)c(CCCN3CCCCC3)c2c1` [Example 38]: the pIC50 was 5.30 to 6.00.

In the case of `CC(C)CCN(CCC(C)C)C(=O)c1ccn2nc(-c3ccc(-c4noc(-c5ccccc5)n4)cc3)c(CCCN3CCCCC3)c2c1` [Example 134], the pIC50 is 5.30 to 6.00.

In turn, `COc1ccc(-c2nn3ccc(C(=O)N(CCC(C)C)CCC(C)C)cc3c2/C=C/CN2CCC(C)CC2)cc1` [Example 145] had a pIC50 of more than 6.30.

Take `CCCCN(CCCC)C(=O)c1ccn2nc(-c3ccc(F)cc3)c(/C=C/CN3CCCCC3)c2c1` [Example 51]: the negative logarithm of the IC50 (pIC50) was 5.30 to 6.00.

In the case of `CCOc1ccc(-c2nn3ccc(C(=O)N(CCC(C)C)CCC(C)C)cc3c2/C=C/CN2CCC(C(F)(F)F)CC2)cc1` [Example 81], the pIC50 was 4.82 to 5.30.

With `COc1ccc(-c2nn3ccc(C(=O)N(CCC(C)C)CCC(C)C)cc3c2CCCN2CCOCC2)cc1` [Example 124], the negative-log IC50 (pIC50) was more than 6.30.

“N,N-Diisopentyl-2-(4-methoxyphenyl)-3-(3-(piperidin-1-yl)propyl)pyrazolo[1,5-a]pyrimidine-5-carboxamide [Example 89]” showed a negative-log IC50 (pIC50) of 5.30 to 6.00.

`CC(C)CCN(CCC(C)C)C(=O)c1ccn2nc(-c3ccc(C(C)O)cc3)c(CCCN3CCCCC3)c2c1` (stereo not shown) [Example 46, 2-(4-(1-Hydroxyethyl)phenyl)-N,N-diisopentyl-3-(3-(piperidin-1-yl)propyl)pyrazolo[1,5-a]pyridine-5-carboxamide]: the pIC50 was more than 6.30.

Compound `CC(C)CCN(CCC(C)C)C(=N)c1ccn2nc(-c3ccc(C(N)=O)cc3)c(CCCN3CCCCC3)c2c1` [Example 126] had a pIC50 of more than 6.30.

For `Cc1nc(-c2ccc(-c3nn4ccc(C(=O)N(CCC(C)C)CCC(C)C)cc4c3CCCN3CCCCC3)cc2)no1` [Example 135], the negative logarithm of the IC50 (pIC50) was more than 6.30.

`COc1ccc(-c2nn3ccc(C(=O)N(CCC(C)C)CCC(C)C)cc3c2CCCN)cc1` [Example 154]: the negative logarithm of the IC50 (pIC50) was 4.82 to 5.30.

In the case of `CC(=O)c1ccccc1-c1nn2ccc(C(=O)N(CCC(C)C)CCC(C)C)cc2c1CCCN1CCCCC1` [Example 40], the pIC50 is 5.30 to 6.00.

`COc1ccc(Nc2nn3ccc(C(=O)N(CCC(C)C)CCC(C)C)cc3c2C(=O)NCCN2CCCCC2)cc1` [Example 152] had a negative-log IC50 (pIC50) of 6.00 to 6.30.

Compound `CC(C)CCN(CCC(C)C)C(=O)c1ccn2nc(C(=O)N3CCOCC3)c(/C=C/CN3CCCCC3)c2c1` [Example 167] gave a negative-log IC50 (pIC50) of 4.82 to 5.30.

Consider `COc1ccc(-c2nn3ccc(C(=O)N(CCC(C)C)CCC(C)C)cc3c2CCN2CCCCC2)cc1` [Example 149, N,N-diisopentyl-2-(4-methoxyphenyl)-3-(2-(piperidin-1-yl)ethyl)pyrazolo[1,5-a]pyridine-5-carboxamide], for which the pIC50 was 4.82 to 5.30.

The compound `COc1ccc(Cl)cc1-c1nn2ccc(C(=O)N(CCC(C)C)CCC(C)C)cc2c1C#CCN1CCCCC1` [Example 101] gave a pIC50 of more than 6.30.

`COC(=O)c1ccccc1-c1nn2ccc(C(=O)N(CCC(C)C)CCC(C)C)cc2c1CCCN1CCCCC1` [Example 39] gave a negative-log IC50 (pIC50) of 5.30 to 6.00.

`COc1ccc(-c2nn3ccc(C(=O)N(CCC(C)C)CCC(C)C)cc3c2/C=C/CN2CCCC2)cc1` [Example 23]: the pIC50 was 5.30 to 6.00.

Turning to `CC(=O)c1cccc(-c2nn3ccc(C(=O)N(CCC(C)C)CCC(C)C)cc3c2/C=C/CN2CCCCC2)c1` [Example 29], the pIC50 is 6.00 to 6.30.

For `COc1ccc(-c2nn3ccc(C(=O)N(CCC(C)C)CCC(C)C)cc3c2CCCN2CCCCC2)cc1` [Example 2], the pIC50 is 5.30 to 6.00.

For `COc1ccc(-c2nn3ccc(C(=O)N(CCC(C)C)CCC(C)C)cc3c2CCCN(C)C2CCNCC2)cc1` [Example 129], the pIC50 was 6.00 to 6.30.

The compound `COc1ccc(-c2nn3ccc(C(=O)N(CCC(C)C)CCC(C)C)cc3c2CCCN2[C@H](C)CCC[C@@H]2C)cc1` [Example 160] showed a negative logarithm of the IC50 (pIC50) of 5.30 to 6.00.

As to `CN=C(c1ccn2nc(-c3ccccc3)c(CCCN3CCCCC3)c2c1)N(CCC(C)C)CCC(C)C` [Example 165, N,N-diisopentyl-N′-methyl-2-phenyl-3-(3-(piperidin-1-yl)propyl)pyrazolo[1,5-a]pyridine-5-carboximidamide], the pIC50 is more than 6.30.

Compound `CCCCN(CCCC)C(=O)c1ccn2nc(-c3ccc(C)cc3)c(/C=C/CN3CCCCC3)c2c1` [Example 63] gave a pIC50 of 6.00 to 6.30.

Turning to `COc1ccc(-c2nn3ccc(C(=O)N(CCC(C)C)CCC(C)C)cc3c2CCCN2CCCOCC2)cc1` [Example 162], the negative logarithm of the IC50 (pIC50) was 6.00 to 6.30.

`CC(=O)c1ccc(-c2nn3ccc(C(=O)N(CCC(C)C)CCC(C)C)cc3c2CCCN2CCCCC2)cc1` [Example 47, 2-(4-Acetylphenyl)-N,N-diisopentyl-3-(3-(piperidin-1-yl)propyl)pyrazolo[1,5-a]pyridine-5-carboxamide] had a negative logarithm of the IC50 (pIC50) of 6.00 to 6.30.

In the case of `COc1ccc(Cl)cc1-c1nn2ccc(C(=O)N(CCC(C)C)CCC(C)C)cc2c1-c1ccc(CN2CCCCC2)cc1` [Example 137], the pIC50 is 5.30 to 6.00.

Regarding `CCCCN(CCCC)CCCc1c(-c2ccc(OC)cc2)nn2ccc(C(=O)N(CCCC)CCCC)cc12` [Example 112], the pIC50 is 5.30 to 6.00.

In the case of `CC(C)CCN(CCC(C)C)C(=O)c1ccn2nc(-c3ccc(C(C)(C)C)cc3)c(/C=C/CN3CCCCC3)c2c1` [Example 5], the pIC50 was 5.30 to 6.00.

`CCOC(=O)c1ccc(NC(=O)c2nn3ccc(C(=O)N(CCC(C)C)CCC(C)C)cc3c2CCCN2CCCCC2)cc1` [Example 125] gave a negative-log IC50 (pIC50) of 5.30 to 6.00.

`CC(C)CCN(CCC(C)C)C(=O)c1ccn2nc(-c3cccc(C#N)c3)c(CCCN3CCCCC3)c2c1` [Example 92] showed a negative logarithm of the IC50 (pIC50) of more than 6.30.

For `Cc1ccc(-c2nn3ccc(C(=O)N(CCC(C)C)CCC(C)C)cc3c2CCCN2CCCCC2)cc1` [Example 61], the pIC50 is more than 6.30.

`CCCN(CC1CC1)C(=O)c1ccn2nc(-c3ccc(OC)cc3)c(/C=C/CN3CCCCC3)c2c1` [Example 26]: the pIC50 is 4.82 to 5.30.

Compound `CCCCCN(CCCCC)C(=O)c1ccn2nc(-c3ccccc3)c(CCCN3CCCCC3)c2c1` [Example 56] had a pIC50 of 6.00 to 6.30.

The next data set concerns MC4R/MC5R.
Test: not given
Conditions: cited from earlier work.
Turning to “Ac-Nle-Gly-Lys-D-Nal(2)-Arg-Trp-Gly-NH(2)”, the “selectivity for MC4R as compared to MC5R” value is reported as 109 fold.

Consider “Ac-Nle-Gly-Lys-D-Phe-Arg-Trp-Gly-NH(2) (Ac-[Nle]GK[dF]RWG-NH2; SMILES CCCC[C@H](NC(C)=O)C(=O)NCC(=O)N[C@@H](CCCCN)C(=O)N[C@H](Cc1ccccc1)C(=O)N[C@@H](CCCNC(=N)N)C(=O)N[C@@H](Cc1c[nH]c2ccccc12)C(=O)NCC(N)=O)”, for which the “selectivity for MC4R as compared to MC5R” value is 110 fold.

In a further data set the test system is MC4R/MC3R.
Test: not given
Conditions: cited from earlier work.
“Ac-Nle-Gly-Lys-D-Nal(2)-Arg-Trp-Gly-NH(2)”: the “selectivity for MC4R as compared to MC3R” value is given as 34 fold.

As to “Ac-Nle-Gly-Lys-D-Phe-Arg-Trp-Gly-NH(2) (Ac-[Nle]GK[dF]RWG-NH2; SMILES CCCC[C@H](NC(C)=O)C(=O)NCC(=O)N[C@@H](CCCCN)C(=O)N[C@H](Cc1ccccc1)C(=O)N[C@@H](CCCNC(=N)N)C(=O)N[C@@H](Cc1c[nH]c2ccccc12)C(=O)NCC(N)=O)”, the “selectivity for MC4R as compared to MC3R” value is given as 90 fold.
